Reference: ChEMBL document CHEMBL4507320, “Data for DCP probe NVS-MALT1” (2021)

What was measured:
[1] = molecular target: Serine/threonine-protein kinase Nek5 (Homo sapiens) (UniProt Q6P3R8); conditions: Compound concentration 1000.0 nM
[2] = molecular target: Phosphatidylinositol 3-kinase C2 domain-containing subunit gamma (Homo sapiens) (UniProt O75747); conditions: Compound concentration 1000.0 nM
[3] = molecular target: Sodium-dependent serotonin transporter (Homo sapiens) (UniProt P31645); conditions: Compound concentration 10.0 uM
[4] = system: Phosphatidylinositol 4,5-bisphosphate 3-kinase catalytic subunit alpha isoform (Homo sapiens), P42336 [M1043I]; conditions: Compound concentration 1000.0 nM
[5] = molecular target: Mitogen-activated protein kinase kinase kinase 13 (Homo sapiens) (UniProt O43283); conditions: Compound concentration 1000.0 nM
[6] = molecular target: Serine/threonine-protein kinase SBK1 (Homo sapiens) (UniProt Q52WX2); conditions: Compound concentration 1000.0 nM
[7] = molecular target: Activin receptor type-1-like (Homo sapiens) (UniProt P37023); conditions: Compound concentration 1000.0 nM
[8] = molecular target: Alpha-1B adrenergic receptor (Homo sapiens) (UniProt P35368); conditions: Compound concentration 10.0 uM
[9] = molecular target: Phosphatidylinositol 3-kinase catalytic subunit type 3 (Homo sapiens) (UniProt Q8NEB9); conditions: Compound concentration 1000.0 nM
[10] = molecular target: Misshapen-like kinase 1 (Homo sapiens) (UniProt Q8N4C8); conditions: Compound concentration 1000.0 nM
[11] = molecular target: Tyrosine-protein kinase Fer (Homo sapiens) (UniProt P16591); conditions: Compound concentration 1000.0 nM
[12] = molecular target: Ribosomal protein S6 kinase alpha-5 (Homo sapiens) (UniProt O75582); conditions: Compound concentration 1000.0 nM
[13] = molecular target: Serine/threonine-protein kinase 26 (Homo sapiens) (UniProt Q9P289); conditions: Compound concentration 1000.0 nM
[14] = system: Proto-oncogene tyrosine-protein kinase receptor Ret (Homo sapiens), P07949 [M918T]; conditions: Compound concentration 1000.0 nM
[15] = molecular target: Mitogen-activated protein kinase kinase kinase 6 (Homo sapiens) (UniProt O95382); conditions: Compound concentration 1000.0 nM
[16] = system: eIF-2-alpha kinase GCN2 (Homo sapiens), Q9P2K8 [S808G]; conditions: Compound concentration 1000.0 nM
[17] = molecular target: Macrophage colony-stimulating factor 1 receptor (Homo sapiens) (UniProt P07333); conditions: Compound concentration 1000.0 nM
[18] = molecular target: Tyrosine-protein kinase SYK (Homo sapiens) (UniProt P43405); conditions: Compound concentration 1000.0 nM
[19] = molecular target: Serine/threonine-protein kinase PLK1 (Homo sapiens) (UniProt P53350); conditions: Compound concentration 1000.0 nM
[20] = molecular target: Serine/threonine-protein kinase 16 (Homo sapiens) (UniProt O75716); conditions: Compound concentration 1000.0 nM
[21] = molecular target: Serine/threonine-protein kinase Chk1 (Homo sapiens) (UniProt O14757); conditions: Compound concentration 1000.0 nM
[22] = molecular target: Calcium/calmodulin-dependent protein kinase type II subunit gamma (Homo sapiens) (UniProt Q13555); conditions: Compound concentration 1000.0 nM
[23] = molecular target: Hepatocyte growth factor receptor (Homo sapiens) (UniProt P08581); conditions: Compound concentration 1000.0 nM
[24] = molecular target: Ephrin type-A receptor 7 (Homo sapiens) (UniProt Q15375); conditions: Compound concentration 1000.0 nM
[25] = molecular target: Mitogen-activated protein kinase kinase kinase 5 (Homo sapiens) (UniProt Q99683); conditions: Compound concentration 1000.0 nM
[26] = molecular target: Tyrosine-protein kinase ITK/TSK (Homo sapiens) (UniProt Q08881); conditions: Compound concentration 1000.0 nM
[27] = molecular target: Ribosomal protein S6 kinase alpha-6 (Homo sapiens) (UniProt Q9UK32); conditions: Compound concentration 1000.0 nM
[28] = molecular target: Serine/threonine-protein kinase RIO2 (Homo sapiens) (UniProt Q9BVS4); conditions: Compound concentration 1000.0 nM
[29] = molecular target: Phosphatidylinositol 5-phosphate 4-kinase type-2 gamma (Homo sapiens) (UniProt Q8TBX8); conditions: Compound concentration 1000.0 nM
[30] = molecular target: Megakaryocyte-associated tyrosine-protein kinase (Homo sapiens) (UniProt P42679); conditions: Compound concentration 1000.0 nM
[31] = molecular target: Serine/threonine-protein kinase 10 (Homo sapiens) (UniProt O94804); conditions: Compound concentration 1000.0 nM
[32] = molecular target: Dual specificity mitogen-activated protein kinase kinase 3 (Homo sapiens) (UniProt P46734); conditions: Compound concentration 1000.0 nM
[33] = system: Mast/stem cell growth factor receptor Kit (Homo sapiens), P10721 [L576P]; conditions: Compound concentration 1000.0 nM
[34] = molecular target: Mitogen-activated protein kinase kinase kinase 11 (Homo sapiens) (UniProt Q16584); conditions: Compound concentration 1000.0 nM
[35] = molecular target: Serine/threonine-protein kinase 32C (Homo sapiens) (UniProt Q86UX6); conditions: Compound concentration 1000.0 nM
[36] = molecular target: TGF-beta receptor type-1 (Homo sapiens) (UniProt P36897); conditions: Compound concentration 1000.0 nM
[37] = system: Tyrosine-protein kinase ABL1 (Homo sapiens), P00519 [Y253F]; conditions: Compound concentration 1000.0 nM
[38] = system: Mast/stem cell growth factor receptor Kit (Homo sapiens), P10721 [D816H]; conditions: Compound concentration 1000.0 nM
[39] = molecular target: Serine/threonine-protein kinase Nek9 (Homo sapiens) (UniProt Q8TD19); conditions: Compound concentration 1000.0 nM
[40] = molecular target: Tyrosine-protein kinase receptor Tie-1 (Homo sapiens) (UniProt P35590); conditions: Compound concentration 1000.0 nM
[41] = molecular target: RAC-alpha serine/threonine-protein kinase (Homo sapiens) (UniProt P31749); conditions: Compound concentration 1000.0 nM
[42] = molecular target: Protein kinase C eta type (Homo sapiens) (UniProt P24723); conditions: Compound concentration 1000.0 nM
[43] = molecular target: Serine/threonine-protein kinase 32B (Homo sapiens) (UniProt Q9NY57); conditions: Compound concentration 1000.0 nM
[44] = molecular target: Protein kinase C iota type (Homo sapiens) (UniProt P41743); conditions: Compound concentration 1000.0 nM
[45] = molecular target: Serine/threonine-protein kinase 35 (Homo sapiens) (UniProt Q8TDR2); conditions: Compound concentration 1000.0 nM

Mitogen-activated protein kinase kinase kinase 13 (Homo sapiens), sequence (O43283 whole entry): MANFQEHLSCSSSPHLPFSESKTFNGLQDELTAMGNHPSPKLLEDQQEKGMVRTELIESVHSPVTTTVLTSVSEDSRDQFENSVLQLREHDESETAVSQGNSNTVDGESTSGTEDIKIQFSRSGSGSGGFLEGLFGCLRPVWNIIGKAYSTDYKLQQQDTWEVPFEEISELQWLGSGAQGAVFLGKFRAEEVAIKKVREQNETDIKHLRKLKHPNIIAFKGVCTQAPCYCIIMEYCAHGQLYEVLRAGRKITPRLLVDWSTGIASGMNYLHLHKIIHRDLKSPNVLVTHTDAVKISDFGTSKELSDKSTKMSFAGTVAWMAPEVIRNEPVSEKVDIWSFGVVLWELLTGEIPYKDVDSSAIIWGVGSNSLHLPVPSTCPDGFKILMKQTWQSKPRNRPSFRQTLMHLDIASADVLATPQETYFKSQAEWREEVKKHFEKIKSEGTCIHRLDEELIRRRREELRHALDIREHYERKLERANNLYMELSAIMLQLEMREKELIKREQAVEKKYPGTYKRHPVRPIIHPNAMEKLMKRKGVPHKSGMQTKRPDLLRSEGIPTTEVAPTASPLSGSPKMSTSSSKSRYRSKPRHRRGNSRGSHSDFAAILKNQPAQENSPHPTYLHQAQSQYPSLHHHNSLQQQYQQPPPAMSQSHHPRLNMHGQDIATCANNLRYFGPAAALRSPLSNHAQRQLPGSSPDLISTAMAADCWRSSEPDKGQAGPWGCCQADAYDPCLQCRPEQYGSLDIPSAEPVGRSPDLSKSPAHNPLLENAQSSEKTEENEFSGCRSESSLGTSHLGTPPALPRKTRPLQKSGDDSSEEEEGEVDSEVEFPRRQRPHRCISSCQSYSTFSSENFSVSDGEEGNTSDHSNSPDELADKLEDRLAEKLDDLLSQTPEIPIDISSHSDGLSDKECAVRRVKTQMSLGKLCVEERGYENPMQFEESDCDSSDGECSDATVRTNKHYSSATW
Tyrosine-protein kinase Fer (Homo sapiens), sequence (P16591 whole entry, looked up): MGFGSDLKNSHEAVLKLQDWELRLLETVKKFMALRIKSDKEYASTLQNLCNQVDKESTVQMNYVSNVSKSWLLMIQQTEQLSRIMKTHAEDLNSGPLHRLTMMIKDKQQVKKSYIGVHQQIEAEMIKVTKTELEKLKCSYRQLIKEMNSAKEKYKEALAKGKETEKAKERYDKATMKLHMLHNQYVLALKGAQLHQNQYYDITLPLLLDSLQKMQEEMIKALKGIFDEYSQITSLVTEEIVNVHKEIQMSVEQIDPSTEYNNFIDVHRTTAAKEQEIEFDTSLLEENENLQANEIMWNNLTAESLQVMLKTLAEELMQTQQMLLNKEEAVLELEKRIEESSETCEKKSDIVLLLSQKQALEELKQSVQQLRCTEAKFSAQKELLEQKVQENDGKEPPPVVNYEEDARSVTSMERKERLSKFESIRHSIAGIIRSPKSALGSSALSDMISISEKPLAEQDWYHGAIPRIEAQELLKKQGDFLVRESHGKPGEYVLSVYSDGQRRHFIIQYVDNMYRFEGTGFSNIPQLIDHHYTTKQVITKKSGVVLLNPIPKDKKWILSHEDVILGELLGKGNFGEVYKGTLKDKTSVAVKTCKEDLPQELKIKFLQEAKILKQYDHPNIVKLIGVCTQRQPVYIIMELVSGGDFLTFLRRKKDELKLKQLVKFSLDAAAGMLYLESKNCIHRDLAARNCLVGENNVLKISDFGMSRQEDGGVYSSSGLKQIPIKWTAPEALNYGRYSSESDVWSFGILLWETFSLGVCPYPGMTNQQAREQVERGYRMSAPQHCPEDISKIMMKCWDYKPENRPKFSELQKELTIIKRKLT
Alpha-1B adrenergic receptor (Homo sapiens), sequence (P35368 whole entry): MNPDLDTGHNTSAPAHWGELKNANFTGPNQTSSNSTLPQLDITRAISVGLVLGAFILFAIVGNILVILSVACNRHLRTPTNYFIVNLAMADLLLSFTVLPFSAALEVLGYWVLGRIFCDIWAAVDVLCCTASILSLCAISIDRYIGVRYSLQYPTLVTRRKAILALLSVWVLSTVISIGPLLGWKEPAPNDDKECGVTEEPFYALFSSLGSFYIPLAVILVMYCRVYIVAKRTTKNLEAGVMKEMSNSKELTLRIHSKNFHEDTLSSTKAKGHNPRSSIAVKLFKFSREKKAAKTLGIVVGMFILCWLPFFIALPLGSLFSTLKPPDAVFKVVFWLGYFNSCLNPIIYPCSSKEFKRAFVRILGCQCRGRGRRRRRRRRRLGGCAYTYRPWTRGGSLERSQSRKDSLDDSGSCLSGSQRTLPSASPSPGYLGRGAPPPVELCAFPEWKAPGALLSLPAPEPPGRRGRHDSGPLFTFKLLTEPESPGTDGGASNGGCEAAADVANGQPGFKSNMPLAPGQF
Ribosomal protein S6 kinase alpha-5 (Homo sapiens), sequence (O75582 whole entry, looked up): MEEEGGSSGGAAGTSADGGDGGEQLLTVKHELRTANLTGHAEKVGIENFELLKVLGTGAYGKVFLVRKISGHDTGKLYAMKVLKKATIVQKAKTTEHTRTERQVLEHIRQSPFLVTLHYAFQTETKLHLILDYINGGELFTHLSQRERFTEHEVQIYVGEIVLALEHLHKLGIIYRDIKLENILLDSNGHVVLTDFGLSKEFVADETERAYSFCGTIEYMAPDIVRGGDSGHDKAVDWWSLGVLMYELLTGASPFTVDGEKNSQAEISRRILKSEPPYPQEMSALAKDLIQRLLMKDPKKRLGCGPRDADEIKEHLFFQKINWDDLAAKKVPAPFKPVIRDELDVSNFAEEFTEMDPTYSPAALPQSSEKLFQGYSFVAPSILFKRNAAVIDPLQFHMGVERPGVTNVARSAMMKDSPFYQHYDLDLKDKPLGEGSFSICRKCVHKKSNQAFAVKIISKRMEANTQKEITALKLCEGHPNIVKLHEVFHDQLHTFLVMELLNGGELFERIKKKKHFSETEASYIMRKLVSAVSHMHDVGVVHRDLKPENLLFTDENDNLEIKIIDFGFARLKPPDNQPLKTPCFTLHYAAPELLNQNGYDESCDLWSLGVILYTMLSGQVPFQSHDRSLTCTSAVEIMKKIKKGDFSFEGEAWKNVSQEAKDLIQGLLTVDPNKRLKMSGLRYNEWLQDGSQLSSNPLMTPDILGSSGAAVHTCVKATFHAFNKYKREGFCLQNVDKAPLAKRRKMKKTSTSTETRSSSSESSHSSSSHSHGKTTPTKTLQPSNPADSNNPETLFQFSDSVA
Serine/threonine-protein kinase SBK1 (Homo sapiens), sequence (Q52WX2 whole entry): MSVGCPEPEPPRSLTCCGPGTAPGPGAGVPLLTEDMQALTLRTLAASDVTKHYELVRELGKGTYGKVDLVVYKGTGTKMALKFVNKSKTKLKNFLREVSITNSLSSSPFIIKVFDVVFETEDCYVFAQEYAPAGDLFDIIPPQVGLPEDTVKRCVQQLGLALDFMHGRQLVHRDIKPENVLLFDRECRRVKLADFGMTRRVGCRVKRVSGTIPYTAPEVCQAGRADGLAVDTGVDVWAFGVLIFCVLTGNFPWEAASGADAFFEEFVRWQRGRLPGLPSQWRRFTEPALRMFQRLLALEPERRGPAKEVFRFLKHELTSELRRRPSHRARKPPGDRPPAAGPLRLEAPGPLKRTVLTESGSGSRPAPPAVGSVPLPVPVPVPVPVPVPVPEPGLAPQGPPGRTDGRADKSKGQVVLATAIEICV
Serine/threonine-protein kinase 26 (Homo sapiens), sequence (Q9P289 2-416 limits assumed): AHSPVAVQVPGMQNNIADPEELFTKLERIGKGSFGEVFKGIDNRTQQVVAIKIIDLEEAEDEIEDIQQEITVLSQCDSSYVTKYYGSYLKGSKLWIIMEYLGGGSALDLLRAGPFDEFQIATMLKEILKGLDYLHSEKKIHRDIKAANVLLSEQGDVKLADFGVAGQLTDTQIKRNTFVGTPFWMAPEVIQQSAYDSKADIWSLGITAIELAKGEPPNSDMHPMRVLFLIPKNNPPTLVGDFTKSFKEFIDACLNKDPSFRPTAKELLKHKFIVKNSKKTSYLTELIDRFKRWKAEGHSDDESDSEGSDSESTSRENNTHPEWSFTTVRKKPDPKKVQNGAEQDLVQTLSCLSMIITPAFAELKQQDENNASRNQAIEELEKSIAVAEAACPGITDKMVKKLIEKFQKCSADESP
Tyrosine-protein kinase ITK/TSK (Homo sapiens), sequence (Q08881 whole entry): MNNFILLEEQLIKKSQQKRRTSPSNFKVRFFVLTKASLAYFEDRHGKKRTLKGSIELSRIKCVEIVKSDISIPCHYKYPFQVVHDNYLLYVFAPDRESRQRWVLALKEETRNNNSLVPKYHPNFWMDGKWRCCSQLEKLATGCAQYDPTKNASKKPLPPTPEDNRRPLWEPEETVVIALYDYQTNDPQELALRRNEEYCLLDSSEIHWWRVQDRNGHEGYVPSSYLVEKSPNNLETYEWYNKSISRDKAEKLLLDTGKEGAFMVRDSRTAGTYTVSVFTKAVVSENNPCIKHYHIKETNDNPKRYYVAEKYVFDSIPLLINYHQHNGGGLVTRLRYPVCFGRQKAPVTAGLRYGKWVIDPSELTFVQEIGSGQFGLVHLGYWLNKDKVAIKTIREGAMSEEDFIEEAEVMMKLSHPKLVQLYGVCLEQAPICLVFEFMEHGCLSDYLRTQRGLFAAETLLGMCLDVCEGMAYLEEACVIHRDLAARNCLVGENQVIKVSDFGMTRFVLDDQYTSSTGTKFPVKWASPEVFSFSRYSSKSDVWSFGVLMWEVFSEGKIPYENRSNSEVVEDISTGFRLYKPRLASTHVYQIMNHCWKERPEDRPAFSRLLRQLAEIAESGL
RAC-alpha serine/threonine-protein kinase (Homo sapiens), sequence (P31749 whole entry): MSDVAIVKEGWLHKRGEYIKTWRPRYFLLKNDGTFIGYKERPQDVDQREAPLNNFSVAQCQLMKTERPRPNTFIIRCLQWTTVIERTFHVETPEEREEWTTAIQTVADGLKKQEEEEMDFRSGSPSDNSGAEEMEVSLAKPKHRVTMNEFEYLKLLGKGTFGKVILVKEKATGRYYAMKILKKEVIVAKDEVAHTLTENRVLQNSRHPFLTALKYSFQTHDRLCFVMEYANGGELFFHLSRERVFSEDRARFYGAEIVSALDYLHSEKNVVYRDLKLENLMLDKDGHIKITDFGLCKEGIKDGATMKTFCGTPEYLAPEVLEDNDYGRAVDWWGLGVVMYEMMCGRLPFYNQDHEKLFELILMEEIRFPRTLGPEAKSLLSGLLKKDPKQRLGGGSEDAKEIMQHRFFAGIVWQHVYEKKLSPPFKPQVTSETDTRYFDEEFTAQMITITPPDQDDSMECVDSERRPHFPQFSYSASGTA

CO[C@@H](C)c1c(Nc2ccc([C@H](N(C)C(=O)C3CCS(=O)(=O)CC3)C(F)(F)F)cc2)cnc2cc(Cl)nn12 [NVS-MALT1]
inactive: residual activity [1] 84% | residual activity [2] 88% | inhibition [3] 11.3% | residual activity [4] 100% | residual activity [5] 78% | residual activity [6] 100% | residual activity [7] 100% | inhibition [8] 27.6% | residual activity [9] 100% | residual activity [10] 100% | residual activity [11] 88% | residual activity [12] 88% | residual activity [13] 100% | residual activity [14] 95% | residual activity [15] 100% | residual activity [16] 78% | residual activity [17] 95% | residual activity [18] 82% | residual activity [19] 77% | residual activity [20] 75% | residual activity [21] 91% | residual activity [22] 77% | residual activity [23] 100% | residual activity [24] 84% | residual activity [25] 84% | residual activity [26] 88% | residual activity [27] 100% | residual activity [28] 90% | residual activity [29] 91% | residual activity [30] 99% | residual activity [31] 100% | residual activity [32] 93% | residual activity [33] 98% | residual activity [34] 79% | residual activity [35] 99% | residual activity [36] 94% | residual activity [37] 100% | residual activity [38] 100% | residual activity [39] 77% | residual activity [40] 92% | residual activity [41] 100% | residual activity [42] 86% | residual activity [43] 89% | residual activity [44] 72% | residual activity [45] 80%

CO[C@@H](C)c1c(Nc2ccc([C@@H](N(C)C(=O)C3CCS(=O)(=O)CC3)C(F)(F)F)cc2)cnc2cc(Cl)nn12 [NVS-MALT1-C]
inactive: residual activity [1] 88% | residual activity [2] 88% | inhibition [3] 14.6% | residual activity [4] 100% | residual activity [5] 100% | residual activity [6] 100% | residual activity [7] 100% | inhibition [8] 5.97% | residual activity [9] 100% | residual activity [10] 100% | residual activity [11] 89% | residual activity [12] 70% | residual activity [13] 100% | residual activity [14] 85% | residual activity [15] 100% | residual activity [16] 68% | residual activity [17] 88% | residual activity [18] 90% | residual activity [19] 87% | residual activity [20] 100% | residual activity [21] 95% | residual activity [22] 84% | residual activity [23] 85% | residual activity [24] 87% | residual activity [25] 81% | residual activity [26] 94% | residual activity [27] 100% | residual activity [28] 89% | residual activity [29] 58% | residual activity [30] 98% | residual activity [31] 98% | residual activity [32] 90% | residual activity [33] 100% | residual activity [34] 85% | residual activity [35] 82% | residual activity [36] 95% | residual activity [37] 100% | residual activity [38] 100% | residual activity [39] 90% | residual activity [40] 96% | residual activity [41] 89% | residual activity [42] 78% | residual activity [43] 95% | residual activity [44] 76% | residual activity [45] 90%
